pIC50: −log10 of the molar value. Like-named read-outs stand apart in the source and are kept apart here.
Target: T1, human GnRH receptor (Homo sapiens, UniProt P30968)
T1 construct: expressed in transfected cells; host or cells: HEK 293 (hGnRH-R/293, from Dr. Stuart Sealfon)
T1 sequence (P30968 1-328): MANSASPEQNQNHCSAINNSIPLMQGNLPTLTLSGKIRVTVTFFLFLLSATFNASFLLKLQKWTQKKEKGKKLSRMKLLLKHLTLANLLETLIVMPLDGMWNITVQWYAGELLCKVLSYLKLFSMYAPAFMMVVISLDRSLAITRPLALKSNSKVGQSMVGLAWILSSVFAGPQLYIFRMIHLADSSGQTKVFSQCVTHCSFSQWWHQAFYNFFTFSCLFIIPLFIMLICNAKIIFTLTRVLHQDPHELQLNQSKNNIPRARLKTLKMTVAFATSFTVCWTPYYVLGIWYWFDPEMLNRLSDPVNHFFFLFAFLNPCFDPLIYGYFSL
Test: Radioligand binding, 125I-GnRH-A displacement, membranes of HEK 293 cells with human GnRH receptor
Details: for pIC50: read-out: hGnRH IC50
Experimental: All compounds were diluted in 1% DMSO (final assay concentration) in binding assay buffer. […] Reactions were terminated by rapid filtration onto 96-well Packard GF/C filters soaked in 0.1% polyethyleneimine. Filters were washed three times with PBS buffer, dried and counted on a Packard Topcount by liquid scintillation counting.
Assay conditions were identical for assessing compound activities at other species. […] IC50 values for control peptides and test compounds were calculated utilizing GraphPad Prism™ software.
Crude compounds were tested using the competitive radioligand binding assay described above.
The reaction mixture was vortexed and incubated for 1 min at room temperature. After one min, the mixture was vortexed and allowed to incubate for an additional minute. 2 ml of 0.5 M acetic acid/1% BSA was added to the reaction tube and the mixture was added to a C18 Sep-Pak cartridge. The cartridge was washed with subsequent washes of 5 ml H2O and 5 ml 0.5M acetic acid and then eluted with 5×1 ml of 60% CH3CN/40% 0.5M acetic acid. The eluate was diluted with 3× volume of HPLC buffer A (0.1% TFA in H2O) and loaded onto a C18 column. The iodinated product was eluted over 20-25 min with a gradient of 25-100% CH3CN containing 0.1% TFA. The radioactive fractions (750 ed/fraction) are collected into clean polypropylene tubes containing 100 μl of 10% BSA. Fractions were assessed for biological activity by radioligand binding.
S%R is the substrate remaining.

[1] = 1 uM, read-out: % Inhib. @ 1 uM hGnRH
[2] = 1 h, repeat of % Inhib. at 1 uM, read-out: Repeats @ 1 uM hGnRH
[3] = repeat, read-out: Repeats @ 10 uM hGnRH (% inhib.)
[4] = read-out: % inhib. @ 10 uM hGnRH

In the case of `Cc1cc2c(cc1Cc1ccc(C(=O)NCC(O)c3ccc(O)c(O)c3)o1)C(C)(C)CCC2(C)C` (stereo not drawn), the inhibition at 1 µM [1] was -26% and the inhibition at 1 µM [2] was 11%.

Work on `Cc1cc2c(cc1Cc1ccc(C(=O)NC(CCO)c3ccccc3)o1)C(C)(C)CCC2(C)C` (stereo not drawn) yielded an inhibition at 1 µM [1] of 17% and an inhibition at 1 µM [2] of 23%.

Compound `Cc1cc2c(cc1Cc1ccc(C(=O)N3CCN(c4cccc(O)c4)CC3)o1)C(C)(C)CCC2(C)C` has an inhibition at 1 µM [1] of -1% and an inhibition at 1 µM [2] of -3%.

`CCN(CCc1ccccn1)C(=O)c1ccc(Cc2cc3c(cc2C)C(C)(C)CCC3(C)C)o1` gave an inhibition at 1 µM [1] of 12% and an inhibition at 1 µM [2] of 8%.

`Cc1cc2c(cc1Cc1ccc(C(=O)NC(c3ccccc3)c3ccc(Cl)cc3)o1)C(C)(C)CCC2(C)C` (stereo not drawn) showed an inhibition at 1 µM [1] of -8% and an inhibition at 1 µM [2] of 3%.

`Cc1cc2c(cc1Cc1ccc(C(=O)NCc3c(CO)cnc(C)c3O)o1)C(C)(C)CCC2(C)C` showed an inhibition at 1 µM [1] of -2% and an inhibition at 1 µM [2] of 6%.

In the case of `Cc1cc2c(cc1Cc1ccc(C(=O)NCC(C)(c3ccccc3)c3ccccc3)o1)C(C)(C)CCC2(C)C`, the inhibition at 1 µM [1] was 16% and the inhibition at 1 µM [2] was 22%.

Compound `Cc1cc2c(cc1Cc1ccc(C(=O)NCCc3ccc(O)c(O)c3)o1)C(C)(C)CCC2(C)C` has an inhibition at 1 µM [1] of -10% and an inhibition at 1 µM [2] of -3%.

`COc1ccc(OC)c(C(O)C(C)NC(=O)c2ccc(Cc3cc4c(cc3C)C(C)(C)CCC4(C)C)o2)c1` (stereo not drawn) gave an inhibition at 1 µM [1] of -6% and an inhibition at 1 µM [2] of 14%.

For `Cc1cc2c(cc1Cc1ccc(C(=O)N[C@@H](CO)Cc3c[nH]cn3)o1)C(C)(C)CCC2(C)C`, the inhibition at 1 µM [1] was -17% and the inhibition at 1 µM [2] was -27%.

Work on `Cc1cc2c(cc1Cc1ccc(C(=O)N3CCc4cc(O)c(O)cc4C3C)o1)C(C)(C)CCC2(C)C` (stereo not drawn) yielded an inhibition at 1 µM [1] of -13% and an inhibition at 1 µM [2] of -5%.

`Cc1cc2c(cc1Cc1ccc(C(=O)NC(CO)[C@H](O)c3ccc([N+](=O)[O-])cc3)o1)C(C)(C)CCC2(C)C` (stereo partly drawn) gave an inhibition at 1 µM [1] of -10% and an inhibition at 1 µM [2] of -15%.

`Cc1cc2c(cc1Cc1ccc(C(=O)N(C)C(C)C(O)c3ccc(O)cc3)o1)C(C)(C)CCC2(C)C` (stereo not drawn) gave an inhibition at 1 µM [1] of -10% and an inhibition at 1 µM [2] of -13%.

`Cc1cc2c(cc1Cc1ccc(C(=O)NC(C)C(O)c3ccccc3)o1)C(C)(C)CCC2(C)C` (stereo not drawn) showed an inhibition at 1 µM [1] of 12% and an inhibition at 1 µM [2] of 14%.

In the case of `Cc1cc2c(cc1Cc1ccc(C(=O)N[C@H](C)[C@H](O)c3ccc(O)cc3)o1)C(C)(C)CCC2(C)C`, the inhibition at 1 µM [1] was -2% and the inhibition at 1 µM [2] was 6%.

In the case of `Cc1cc2c(cc1Cc1ccc(C(=O)NCC(O)c3ccc(O)cc3)o1)C(C)(C)CCC2(C)C` (stereo not drawn), the inhibition at 1 µM [1] was 25% and the inhibition at 1 µM [2] was 28%.

For `Cc1cc2c(cc1Cc1ccc(C(=O)N[C@@H](CO)Cc3ccc(O)cc3)o1)C(C)(C)CCC2(C)C`, the inhibition at 1 µM [1] was -12% and the inhibition at 1 µM [2] was -9%.

In the case of `Cc1cc2c(cc1Cc1ccc(C(=O)Nn3c(O)nnc3-c3ccccc3)o1)C(C)(C)CCC2(C)C`, the inhibition at 10 µM [3] was -25% and the inhibition at 10 µM [4] was -25%.

Compound `Cc1cc2c(cc1Cc1ccc(C(=O)NN3C(=O)c4ccccc4C3=O)o1)C(C)(C)CCC2(C)C` has an inhibition at 10 µM [3] of -20% and an inhibition at 10 µM [4] of -15%.

In the case of `Cc1cc2c(cc1Cc1ccc(C(=O)Nn3c(O)nnc3-c3ccncc3)o1)C(C)(C)CCC2(C)C`, the inhibition at 10 µM [3] was -28% and the inhibition at 10 µM [4] was -17%.

For `Cc1ccc2nc(C)n(NC(=O)c3ccc(Cc4cc5c(cc4C)C(C)(C)CCC5(C)C)o3)c(=O)c2c1`, the inhibition at 10 µM [3] was -4% and the inhibition at 10 µM [4] was -4%.

Work on `Cc1cc2c(cc1Cc1ccc(C(=O)Nn3c(N)nc(C(F)(F)F)cc3=O)o1)C(C)(C)CCC2(C)C` yielded an inhibition at 10 µM [3] of -5% and an inhibition at 10 µM [4] of -10%.

Compound `COc1cc(OC)c(NC(=O)c2ccc(C(O)c3cc4c(cc3C)C(C)(C)CCC4(C)C)o2)c(OC)c1` (stereo not drawn) [AXC- 07047] has a pIC50 of 5.85.

`COc1cc(C)c(Cl)c(C)c1Cc1ccc(C(N)=O)o1` [AXC- 07450] gave a pIC50 of less than 5.00.

In the case of `CCN(CC)S(=O)(=O)c1ccc(OC)c(NC(=O)c2ccc(Cc3cc4c(cc3C)C(C)(C)CCC4(C)C)o2)c1` [Compound 26], the pIC50 was 6.00.

In the case of `Cc1cc2c(cc1Cc1ccc(C(=O)NCCCNC(=O)c3ccc(Cc4cc5c(cc4C)C(C)(C)CCC5(C)C)o3)o1)C(C)(C)C=CC2(C)C` [Compound 27], the pIC50 was less than 5.00.

`Cc1cc2c(cc1Cc1ccc(C(=O)NCCCCCCNC(=O)c3ccc(Cc4cc5c(cc4C)C(C)(C)CCC5(C)C)o3)o1)C(C)(C)CCC2(C)C` [Compound 28] was tested, and the pIC50 was less than 5.00.

`Cc1cc2c(cc1Cc1ccc(C(=O)Nc3ccc(S(=O)(=O)Nc4nccs4)cc3)o1)C(C)(C)CCC2(C)C` [Compound 29] was tested, and the pIC50 was 5.85.

For `Cc1cc2c(cc1Cc1ccc(C(=O)N3CCN(c4ncccn4)CC3)o1)C(C)(C)CCC2(C)C` [Compound 30.5], the pIC50 was 5.30.

With `Cc1cc2c(cc1Cc1ccc(C(=O)Nc3ccc(N4CCOCC4)cc3)o1)C(C)(C)CCC2(C)C` [Compound 30] the pIC50 was 5.87.

`CCOC(=O)Cc1ccc(NC(=O)c2ccc(Cc3cc4c(cc3C)C(C)(C)CCC4(C)C)o2)cc1` [Compound 32] was tested, and the pIC50 was 5.42.

`Cc1cc2c(cc1Cc1ccc(C(=O)Nc3ccc(CC(=O)O)cc3)o1)C(C)(C)CCC2(C)C` [Compound 33] showed a pIC50 of 5.28.

Work on `N=C(N)NC[C@H]1CC[C@H](CNC(=O)c2ccc(Cc3ccccc3)o2)CC1` [Compound 34] yielded a pIC50 of less than 5.00.

`Cc1cc2c(cc1Cc1ccc(C(=O)NCC3CCN(C(=N)N)CC3)o1)C(C)(C)CCC2(C)C` [Compound 35] showed a pIC50 of 5.92.

In the case of `Cc1cnc(CNC(=O)c2cccc(Cc3cc4c(cc3C)C(C)(C)CCC4(C)C)c2)cn1` [Compound 37.5], the pIC50 was 5.11.

`CNC(=O)c1ccc(Cc2cc3c(cc2C)C(C)(C)CCC3(C)C)o1` [Compound 37] gave a pIC50 of 5.68.

Compound `Cc1cc2c(cc1Cc1ccc(C(=O)N3C[C@@H]4CCCC[C@@H]4CC3C(=O)NC(C)(C)C)o1)C(C)(C)CCC2(C)C` (stereo partly drawn) [Compound 38.5] has a pIC50 of less than 5.00.

In the case of `COCCNC(=O)c1ccc(Cc2cc3c(cc2C)C(C)(C)CCC3(C)C)o1` [Compound 40], the pIC50 was 6.28.

With `Cc1cnc(CNC(=O)c2ccc(Cc3ccccc3)o2)cn1` [Compound 45] the pIC50 was less than 5.00.

For `Cc1cc2c(cc1Cc1ccc(C(=O)NCc3ccc(C(C)(C)C)cc3)o1)C(C)(C)CCC2(C)C` [Compound 49], the pIC50 was 5.43.

In the case of `Cc1cc2c(cc1Cc1ccc(C(=O)NCCc3cccc(F)c3)o1)C(C)(C)CCC2(C)C` [Compound 54], the pIC50 was 6.17.

`Cc1cc2c(cc1Cc1ccc(C(=O)NCCc3ccccc3Cl)o1)C(C)(C)CCC2(C)C` [Compound 55] showed a pIC50 of 6.24.

With `Cc1cc2c(cc1Cc1ccc(C(=O)NC[C@H]3CCCO3)o1)C(C)(C)CCC2(C)C` [Compound 57] the pIC50 was 6.08.

`Cc1cc2c(cc1Cc1ccc(C(=O)NC[C@@H]3CCCO3)o1)C(C)(C)CCC2(C)C` [Compound 58] showed a pIC50 of 6.69.

`Cc1cc2c(cc1Cc1ccc(C(=O)NCC3CN(Cc4ccccc4)CCO3)o1)C(C)(C)CCC2(C)C` (stereo not drawn) [Compound 59] showed a pIC50 of 6.01.

With `Cc1cnc(CNC(=O)c2ccc(Cc3ccc4c(c3)C(C)(C)CCC4(C)C)o2)cn1` [Compound 60] the pIC50 was 5.38.

`COc1cccc(C)c1NC(=O)c1ccc(Cc2cc3c(cc2C)C(C)(C)CCC3(C)C)o1` [Compound 61] was tested, and the pIC50 was 6.12.

`Cc1cc2c(cc1Cc1ccc(C(=O)Nc3ccc(OCc4ccccc4)c(OCc4ccccc4)c3)o1)C(C)(C)CCC2(C)C` [Compound 62] was tested, and the pIC50 was less than 5.00.

For `Cc1cc2c(cc1Cc1ccc(C(=O)NCCNc3nccc(NCC4CCCO4)n3)o1)C(C)(C)CCC2(C)C` (stereo not drawn) [Compound 63], the pIC50 was 5.60.

In the case of `Cc1cc2c(cc1Cc1ccc(C(=O)NCCSCCCc3ccc(CN(C)C)o3)o1)C(C)(C)CCC2(C)C` [Compound 65], the pIC50 was 6.15.

For `Cc1cc2c(cc1Cc1ccc(C(=O)NCc3cccc(-c4ccccc4)c3)o1)C(C)(C)CCC2(C)C` [Compound 66], the pIC50 was 5.46.

In the case of `Cc1cc2c(cc1Cc1ccc(C(=O)NCCCCNc3nccc(NCC4CCCO4)n3)o1)C(C)(C)CCC2(C)C` (stereo not drawn) [Compound 69], the pIC50 was 5.85.

In the case of `COc1cc(OC)nc(NCC2CCC(CNC(=O)c3ccc(Cc4cc5c(cc4C)C(C)(C)CCC5(C)C)o3)CC2)n1` (stereo not drawn) [Compound 71], the pIC50 was 5.70.

`Cc1cc2c(cc1Cc1ccc(C(=O)Nc3cccc(CO)c3)o1)C(C)(C)CCC2(C)C` [Compound 121] showed a pIC50 of 5.96.

`Cc1ccc([C@H](C)NC(=O)c2ccc(Cc3cc4c(cc3C)C(C)(C)CCC4(C)C)o2)cc1` [Compound 123] showed a pIC50 of 6.29.

In the case of `COC(CNC(=O)c1ccc(Cc2cc3c(cc2C)C(C)(C)CCC3(C)C)o1)OC` [Compound 131], the pIC50 was 6.22.

`CCCOCCNC(=O)c1ccc(Cc2cc3c(cc2C)C(C)(C)CCC3(C)C)o1` [Compound 132] was tested, and the pIC50 was 6.19.

`Cc1cc2c(cc1Cc1ccc(C(=O)NCCC3OCCO3)o1)C(C)(C)CCC2(C)C` [Compound 133] gave a pIC50 of 6.31.

Compound `CCN(CC)CCOC(=O)c1ccc(NC(=O)c2ccc(Cc3cc4c(cc3C)C(C)(C)CCC4(C)C)o2)cc1` [Compound 135] has a pIC50 of 5.84.
